The values that follow come from patent US20250145715A1, “B7-H3 TARGETING FUSION PROTEINS AND METHODS OF USE THEREOF” (GT Biopharma, Inc., priority 2021, published 2025).

Experiment [1] deals with normal immune cells (PBMCs). Description: Background NK cell activity in PBMCs without tumor targets. The experiment is classed as cell-based, human. The protocol:
ADCC was measured in a flow cytometry assay by evaluating degranulation via CD107a (lysosomal-associated membrane protein LAMP-1) and intracellular IFNγ production. Upon thawing, normal donor and patient-derived PBMCs or ascites cells were rested overnight (37° C., 5% CO2) in RPMI 1640 media supplemented with 10% fetal calf serum (RPMI-10). The next morning, they were suspended with tumor-target cells or media after washing twice with RPMI-10. Cells were then incubated with TriKEs or controls for 10 min at 37° C. Fluorescein isothiocyate (FITC)-conjugated anti-human CD107a monoclonal antibody (BD Biosciences, San Jose, CA, USA) was then added. […] Samples were washed and evaluated in an LSRII flow cytometer (BD Biosciences, San Jose, CA, USA).
The ability of cam1615B7-H3 TriKE to mediate NK cell activity against ovarian cancer cells was evaluated. […] In order to determine if the individual components of the TriKE could induce NK cell activity on their own, the individual cam16 VHH, IL-15, or anti-B7-H3 scFv components were incubated with PBMCs and OVCAR8 cells and activity was determined. […] NK cell activity, from normal donor PBMCs and ascites from the peritoneal cavity of ovarian cancer patients at the time of surgery, was assessed against MA-148 cells, another high-grade serous ovarian adenocarcinoma cell line (FIGS. 29A-29B and 30G-30H). […]

The test system of experiment [2] is MA-148-luc ovarian cancer cells. Briefly: Xenogeneic ovarian cancer MA-148-Luc model. It counts as in vivo, NSG mice. An excerpt: FIGS. 32A-32F illustrate that cam1615B7-H3 TriKE is efficacious in subduing ovarian tumor progression in vivo. FIG. 32A is a diagram showing xenogeneic ovarian cancer MA-148-Luc model in female NSG mice (N=5 per treatment group). FIG. 32B is a graph showing bioluminescent imaging indicative of tumor progression, measured as Total flux radiance (p/s), over three weeks in the MA148 mouse model treated with enriched NK cells and noted treatments. FIG. 32C is a graph illustrating bioluminescent imaging results on day 21 data point. FIG. 32D is a photograph illustrating total flux radiance (p/s) on day 21. FIG. 32E is a scatter plot of CD56+CD3− NK cell numbers from peritoneal lavages for the rhIL-15 and cam1615B7-H3 TriKE treatment groups at D21. FIG. 32F is a scatter plot of CD16 media fluorescence intensity on NK cells from peritoneal lavages for the rhIL-15 and cam1615B7-H3 TriKE treatment groups at day 21. * p<0.05, ** p<0.01.
MA-148-Luc ovarian cancer cells were incorporated into a previously described NK cell xenogeneic mouse model system. NSG mice (NOD.Cg-Prkdcscid Il2rgtm1Wjl/SzJ, n=5/group) were injected IP with 2.0×10^5 MA-148-luc cells and then three days later conditioned with low-dose total body irradiation (225 cGy). The following day, all groups received highly enriched NK cells (PBMC magnetically CD3 and CD19 depleted), equivalent to 1 million NK cells/mouse, and were started on the drug regimen. A single course of treatment consisted of an IP injection of […] of TriKE or 5 μg rhIL-15 given every day of the week (Monday-Friday) for three weeks. MA-148-luc cells are a subline of MA-148 that have been transfected with a luciferase reporter gene, allowing for imaging of the mice each week to determine their bioluminescent activity and to monitor tumor progression. Briefly, mice were injected with 100 μL of 30 mg/mL luciferin substrate 10 min prior to imaging and then anesthetized via inhalation of isoflurane gas (25). Mice were then imaged using the Xenogen Ivis 100 imaging system and analyzed with Living Image 2.5 software (Xenogen Corporation, Alameda, CA, USA). At the end of the experiment (day 21), all the animals were sacrificed, and postmortem peritoneal lavages were performed to analyze human NK cell content by flow cytometry. Animal imaging and analysis was performed at the University of Minnesota Imaging Center. Mouse studies were carried after approval (protocol 1908-37330A) from the Institutional Animal Care and Use Committee (IACUC) at the University of Minnesota and in compliance with their guidelines.
As illustrated in FIGS. 32A-32F, cam1615B7-H3 TriKE mediates anti-tumor activity in vivo. Determination of in vivo activity is a critical step for translation. However, prior to evaluating the ability of the cam1615B7-H3 TriKE to induce function against tumor the potential for toxicity was assessed. To do this NSG mice were irradiated, engrafted with 1 million NK cells, treated with nothing, IL-15, or cam1615B7-H3 for three weeks, and weights were tracked over the course of 90 days post initial treatment. […] This is not surprising given the low toxicity profile of IL-15 and the safety profile of B7-H3. […] In this model, human NK cells and human high grade serous MA-148-luc cells are injected into the peritoneal cavity of NSG mice.

In the case of “cam1615B7-H3: second-generation TriKE: humanized camelid anti-CD16 VHH, human wild-type IL-15, anti-B7-H3 mAb 376.96 scFv; SEQ ID NO:1”, in experiment [1], the “background NK cell IFNγ” value is recorded as “No background noise” and the “background NK cell degranulation (CD107a)” value is “some background degranulation (CD107a) on NK cells in comparison to controls, but this activity was low”. Also, in experiment [2] (IP 30 g of TriKE or 5 μg rhIL-15 Monday-Friday for three weeks, enriched NK cells, vs IL-15 treated or tumor only), the “tumor progression (bioluminescence), longitudinal” value is on record as “lowest tumor progression”. Besides, in experiment [2] (TriKE-treated vs IL-15-treated mice), the PD-1 expression result is on record as “lower (but not significant) trend of expression”. Moreover, the “CD16 expression on NK cells from peritoneal lavages” value in experiment [2] (day 21, vs IL-15 treated mice) is reported as “higher levels of CD16 expression than IL-15 treated mice”. Moreover, the “tumor burden at day 21” value in experiment [2] (day 21, vs tumor only group) is listed as “significantly lower tumor burden than the tumor only group”. In experiment [2] (treatment not curative within this model), the “disease outcome of treated animals” value is reported as “stable disease”.
